Experimental data: PMC4351081, “Lincosamide Synthetase—A Unique Condensation System Combining Elements of Nonribosomal Peptide Synthetase and Mycothiol Metabolism” (PLoS ONE, 2015)

Biological target: T1, LmbC (with holo-LmbN-CP) (Streptomyces lincolnensis, UniProt A9Y8R4)
T1 construct: gene SLINC_0236; LmbC: stand-alone NRPS adenylation domain, recombinant, produced as described previously; LmbN-CP: stand-alone N-terminal ~80-residue CP domain, C-terminal His-tag, E. coli BL21(DE3), phosphopantetheinylated by Slp (holo); with LmbN, N-terminal carrier protein domain (LmbN-CP)
T1 sequence (A9Y8R4 1-509): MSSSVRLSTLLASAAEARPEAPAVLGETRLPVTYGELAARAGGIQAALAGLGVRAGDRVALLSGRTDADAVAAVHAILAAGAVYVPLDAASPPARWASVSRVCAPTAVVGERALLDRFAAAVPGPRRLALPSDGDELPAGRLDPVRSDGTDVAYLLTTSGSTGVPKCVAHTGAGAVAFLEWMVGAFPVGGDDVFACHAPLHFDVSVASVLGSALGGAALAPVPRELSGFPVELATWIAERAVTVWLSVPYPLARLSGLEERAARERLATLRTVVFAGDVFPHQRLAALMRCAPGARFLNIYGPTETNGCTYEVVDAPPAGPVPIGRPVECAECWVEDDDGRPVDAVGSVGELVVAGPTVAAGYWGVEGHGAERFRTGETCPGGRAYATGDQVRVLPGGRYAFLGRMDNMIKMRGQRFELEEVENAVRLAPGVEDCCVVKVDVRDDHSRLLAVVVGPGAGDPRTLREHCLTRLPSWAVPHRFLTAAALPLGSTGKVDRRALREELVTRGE
T1 sequence (A9Y8S4 1-80 partner limits assumed): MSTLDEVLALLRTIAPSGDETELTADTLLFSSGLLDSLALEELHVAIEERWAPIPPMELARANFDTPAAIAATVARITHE
Assay: LC-MS (FT-ICR) of aminoacylated carrier protein
Assay type: biochemical
Settings: 3 mM PPL, 1.2 mM ATP, Mg2+, in vitro or in vivo phosphopantetheinylated LmbN-CP, 0.6 uM LmbC, pH 8.8, 28 C, 50 min; PPL transferred to holo-LmbN-CP (covalent)

## CCCC1CN[C@H](C(=O)O)C1 (stereo partly drawn) [4-propyl-L-proline]
  LC-MS (FT-ICR) of aminoacylated carrier protein: A-domain LmbC together with LmbN-holo-CP activate the PPL precursor of lincomycin
